# Data reported in PubChem BioAssay AID1918937 (Molecular Pharmacology Branch, DTP, NCI, 2023).
# “And” between values parts separate entries of the source, which are not always exact repeats. Equal entries are not always repeated.
# Test system: 521955-158-R2-J5-PDC complex spheroid viability
# Experiment: Anticancer human tumor 521955-158-R2-J5-PDC patient-derived pancreatic carcinoma cell line growth inhibition
# Conditions: compound 1 µM; stronger effect = lower value
# From the text: Multicellular complex tumor spheroid response to LSD1 Inhibitor Iadademstat in combination with a variety of drugs and investigational agents in selected tumor cell lines
# The current study was undertaken to assess response to LSD1 inhibitors in combination with standard-of-care drugs and investigational agents in solid tumor complex spheroid models as well as in the K-562 leukemia. Complex spheroids include a stromal component modeled by human endothelial cells (HUVEC) and fibroblasts modeled by human mesenchymal stem cells (MSCs). The concentration ranges selected for each drug and investigational agent were based upon clinically achievable concentrations if the clinical Cmax of the agent was known.
# Compounds. The drugs and investigational agents used in this study are listed on Table 1. All of the agents used, including staurosporine (NSC755774) and gemcitabine (NSC613327), were obtained from the Developmental Therapeutics Program, NCI. FDA-approved anticancer drugs are available from the NCI at http://dtp.nci.nih.gov/branches/dscb/oncology_drugset_explanation.html. Drugs and investigational agents were >95% pure by proton nuclear magnetic resonance (NMR) and liquid chromatography/mass spectrometry (LC/MS). Stock solutions were prepared at 400x in DMSO, stored at -70 degrees C, and diluted in fresh medium prior to their use. The final concentration of DMSO in cell culture wells never exceeded 0.25% (v/v). The FDA-approved anticancer drug set is available from the Developmental Therapeutics Program at https://dtp.cancer.gov/organization/dscb/obtaining/available_plates.htm. All drugs and investigational agents were tested over a range starting from a high concentration at or near the clinical Cmax and decreasing in half-log increments. If the clinical Cmax for an agent had not been determined, the highest concentration tested was 10 microM.
# Cell Lines. The patient-derived cancer cell (PDC) lines: 292921-168-R-J2-PDC, K24384-001-R-PDC, and 521955-158-R2-J5-PDC pancreatic carcinomas, 556581-035-R-J1 ovarian carcinoma, 324938-238-R-J1-PDC, 855422-203-R-J1-PDC and 883617-216-R-J1-PDC urothelial bladder carcinomas, 743489-274-T-PDC renal cell carcinoma, 138582-R-J1 Merkel cell tumor, K60290-347-R-J1 and K57222-313-R-J1-PDC glioblastomas, 653999-131-R-J2-PDC, LG0703-F948-PDC, and 349418-098-R-PDC non-small cell lung carcinomas, 885512-296-R-J2-PDC, 171881-019-R-J1-PDC breast carcinomas and 186277-243-T-J2-PDC and 233499-124-R-J2-PDC colon carcinomas were obtained from the NCI Patient-Derived Models Repository (PDMR, https://pdmr.cancer.gov). The established cell lines NCI/ADR-RES (RRID:CVCL_14520 and OVCAR-5 (RRID:CVCL_1628) ovarian carcinomas, 786-O (RRID:CVCL_1051) and A498 (RRID:CVCL_A498) renal cell carcinoma, NCI-H211 (ATCC, cat. CRL-5824; RRID:CVCL_1529), NCI-H196 (ATCC, cat. CRL-5823, RRID:CVCL_1509), SW 1271 (ATCC, cat. CRL-2177, RRID:CVCL_1716) and NCI-H1876 (ATCC, cat. CRL-5902, RRID:CVCL_1503) small cell lung carcinomas, MDA-MB-231 (RRID:CVCL_0062) and MDA-MB-468 (RRID:CVCL_0419)breast carcinomas (10-12). Pooled donor human umbilical vein endothelial cells (HUVEC, Lonza, cat. CC-2519) and human mesenchymal stem cells (hMSC, Lonza, cat. PT-2501) were purchased from Lonza (Walkersville, MD).
# Cell Culture. All cells were maintained in an incubator at 37 degrees C and 5% CO2 with 95% humidity. The PDC lines were cultured according to standard operating procedures established by the NCI PDMR (https://pdmr.cancer.gov). Briefly all PDCs were thawed and cultured in Matrigel-coated flasks prepared with a working solution of 1X Ham's F-12 nutrient mix, without supplementation (Invitrogen, Waltham, MA, cat. 11765054), 100 U/mL penicillin-streptomycin (Invitrogen, cat. 15140122), and 2.5% Matrigel (Corning Inc., Corning, NY, cat. 354248) for the first three passages. […]
# 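Further: spheroids exposed to agents for seven days.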
# 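Wherever viability, T/C is given: percent of DMSO vehicle control luminescence viability.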
row,Compound,"viability, T/C"
1,O=C(C=Cn1cnc(-c2cc(C(F)(F)F)cc(C(F)(F)F)c2)n1)NNc1cnccn1,11.8% and 16.6%
2,O=C(c1cc(Cc2n[nH]c(=O)c3ccccc23)ccc1F)N1CCN(C(=O)C2CC2)CC1,100% and 97.1%

# Same assay, conditions: compound 3 µM; stronger effect = lower value
row,Compound,"viability, T/C"
1,CCN(c1cc(-c2ccc(CN3CCOCC3)cc2)cc(C(=O)NCc2c(C)cc(C)[nH]c2=O)c1C)C1CCOCC1,46.6% and 75%
2,COc1cc(C2c3cc4c(cc3C(OC3OC5COC(C)OC5C(O)C3O)C3COC(=O)C23)OCO4)cc(OC)c1O (stereo not drawn),8.64% and 9.05%
3,NS(=O)(=O)OCC1CC(n2ccc3c(NC4CCc5ccccc54)ncnc32)CC1O (stereo not drawn),9.5% and 9.51%
4,Nc1ccccc1NC(=O)c1ccc(CNC(=O)OCc2cccnc2)cc1,0.41% and 0.46%

# Same assay, conditions: compound 3.16 µM; stronger effect = lower value
row,Compound,"viability, T/C"
1,CC(C)c1c(-c2ccccc2)nc2c(C#N)c[nH]n2c1=O,102% and 94.2%
2,CC1(C)CCC(CN2CCN(c3ccc(C(=O)NS(=O)(=O)c4ccc(NCC5CCOCC5)c([N+](=O)[O-])c4)c(Oc4cnc5[nH]ccc5c4)c3)CC2)=C(c2ccc(Cl)cc2)C1,62% and 73.6%
3,CC1COCCN1c1cc(C2(S(C)(=N)=O)CC2)nc(-c2ccnc3[nH]ccc23)n1 (stereo not drawn),9.05% and 12.5%
4,COc1ccc([C@@H](O)c2cc(-c3ncnc4cc(N5CCOCC5)ccc34)c(F)cc2Cl)nn1,38.6% and 57.8%
5,O=C(c1cc(Cc2n[nH]c(=O)c3ccccc23)ccc1F)N1CCN(C(=O)C2CC2)CC1,90.8% and 96.1%

# Same assay, conditions: compound 10 µM; stronger effect = lower value
row,Compound,"viability, T/C"
1,CC(C)c1c(-c2ccccc2)nc2c(C#N)c[nH]n2c1=O,86.5% and 85.9%
2,CC1(C)CCC(CN2CCN(c3ccc(C(=O)NS(=O)(=O)c4ccc(NCC5CCOCC5)c([N+](=O)[O-])c4)c(Oc4cnc5[nH]ccc5c4)c3)CC2)=C(c2ccc(Cl)cc2)C1,0.69% and 0.97%
3,CC1COCCN1c1cc(C2(S(C)(=N)=O)CC2)nc(-c2ccnc3[nH]ccc23)n1 (stereo not drawn),13.5% and 17.8%
4,COc1ccc([C@@H](O)c2cc(-c3ncnc4cc(N5CCOCC5)ccc34)c(F)cc2Cl)nn1,22.4% and 24.5%
5,O=C(c1cc(Cc2n[nH]c(=O)c3ccccc23)ccc1F)N1CCN(C(=O)C2CC2)CC1,55.5% and 78.5%

# Same assay, conditions: compound alone; run of 02/15/2022
row,IC50,Compound
1,> 10 µM,NC1CCC(NC2CC2c2ccccc2)CC1 (stereo not drawn)

# Same assay, conditions: compound alone; run of 02/21/2022
row,IC50,Compound
1,> 10 µM,NC1CC1c1ccc(-c2cccc(O)c2)cc1 (stereo not drawn)

# Same assay, conditions: curve of compound
row,Compound,IC50
1,CC(C)CC(NC(=O)C(Cc1ccccc1)NC(=O)c1cnccn1)B(O)O (stereo not drawn),0.000488 µM and 0.000537 µM
2,CC(C)CC(NC(=O)CNC(=O)c1cc(Cl)ccc1Cl)B1OC(=O)CC(CC(=O)O)(C(=O)O)O1 (stereo not drawn),0.00519 µM and 0.00618 µM
3,CC(C)c1c(-c2ccccc2)nc2c(C#N)c[nH]n2c1=O,> 10 µM
4,CC1COCCN1c1cc(C2(S(C)(=N)=O)CC2)nc(-c2ccnc3[nH]ccc23)n1 (stereo not drawn),0.593 µM and 0.655 µM
5,CC[C@@]1(O)C(=O)OCc2c1cc1n(c2=O)Cc2cc3c(CN(C)C)c(O)ccc3nc2-1,0.00521 µM and 0.00617 µM
6,CCc1c2c(nc3ccc(O)cc13)-c1cc3c(c(=O)n1C2)COC(=O)[C@]3(O)CC,< 0.000949 µM
7,COc1cc(C2c3cc4c(cc3C(OC3OC5COC(C)OC5C(O)C3O)C3COC(=O)C23)OCO4)cc(OC)c1O (stereo not drawn),0.0715 µM and 0.151 µM
8,NS(=O)(=O)OCC1CC(n2ccc3c(NC4CCc5ccccc54)ncnc32)CC1O (stereo not drawn),0.0319 µM and 0.067 µM
9,Nc1ccn(C2OC(CO)C(O)C2(F)F)c(=O)n1 (stereo not drawn),0.0711 µM and 0.0965 µM
10,Nc1ncn(C2CC(O)C(CO)O2)c(=O)n1 (stereo not drawn),> 1 µM
11,Nc1ncn(C2CC(O)C(CO)S2)c(=O)n1 (stereo not drawn),0.226 µM and > 0.3 µM
12,O=C(C=Cc1cccc(S(=O)(=O)Nc2ccccc2)c1)NO,> 3 µM and 0.619 µM

# Results, then the compound that gave them:
row,IC50,Compound
1,3.96 µM and 4.6 µM,CC1(C)CCC(CN2CCN(c3ccc(C(=O)NS(=O)(=O)c4ccc(NCC5CCOCC5)c([N+](=O)[O-])c4)c(Oc4cnc5[nH]ccc5c4)c3)CC2)=C(c2ccc(Cl)cc2)C1
2,< 0.00316 µM,CC1COCCN1c1cc(-c2ccnn2C)c2ccnc(-c3ccn[nH]3)c2n1 (stereo not drawn)
3,2.6 µM and > 3 µM,CCN(c1cc(-c2ccc(CN3CCOCC3)cc2)cc(C(=O)NCc2c(C)cc(C)[nH]c2=O)c1C)C1CCOCC1
4,0.154 µM and > 1 µM,COc1cc(Nc2ncc3c(n2)-c2ccc(Cl)cc2C(c2c(F)cccc2OC)=NC3)ccc1C(=O)O
5,1.55 µM and 3.39 µM,COc1ccc([C@@H](O)c2cc(-c3ncnc4cc(N5CCOCC5)ccc34)c(F)cc2Cl)nn1
6,> 0.1 µM,Cn1ncnc1C1c2n[nH]c(=O)c3cc(F)cc(c23)NC1c1ccc(F)cc1 (stereo not drawn)
7,0.324 µM and 0.508 µM,Nc1ccccc1NC(=O)c1ccc(CNC(=O)OCc2cccnc2)cc1
8,> 10 µM,O=C(c1cc(Cc2n[nH]c(=O)c3ccccc23)ccc1F)N1CCN(C(=O)C2CC2)CC1
